Measurements as given in patent US8691225B2, “Antibodies against the ectodomain of ErbB3 and uses thereof” (Merrimack Pharmaceuticals, Inc., priority 2007, dated 2014).
Read-outs that look alike come from different tables or passages of the source.

Columns and labels:
[1] = tested on: ErbB3 phosphorylation in AdrR cells; assay: inhibitor dose response of ligand-induced ErbB3 phosphorylation (ELISA); assay type: cell-based, human; conditions: for IC50: Homo sapiens, 10 min
Description: Phosphorylation of ErbB3 is measured by ELISA (R&D Systems, DYC1769-5, per manufacturers protocol) and IC50 values are determined using Prism (GraphPad Software Inc.).

[2] = tested on: SKOV3 subcutaneous xenograft tumors; assay: PI3K mutant SKOV3 subcutaneous xenograft tumors; assay type: in vivo, mouse; conditions: Ab #6 300 μg every three days; cisplatin 1.5 mg/kg; dosing after 30 day lag phase
Description: SKOV3 (SKOV-3) is an ovarian cancer cell line that comprises a mutation that upregulates PI3K expression.

[3] = tested on: A549 subcutaneous xenograft tumors; assay: KRAS mutant A549 subcutaneous xenograft tumors; assay type: in vivo, mouse; conditions: Ab #6 300 μg every three days; erlotinib 25 mg/kg every day; taxol 20 mg/kg every 7 days
[4] = tested on: ACHN (a renal tumor cell line) xenograft tumors; assay: ACHN xenograft combination therapy; assay type: in vivo, mouse; conditions: Ab #6 300 μg IP every three days; erlotinib 25 mg/kg orally once daily
Description: In a first experiment, mice bearing ACHN (a renal tumor cell line) xenograft tumors are prepared by establishing tumors subcutaneously in the flanks of nude mice (Charles River Laboratories).

[5] = tested on: DU145 (a prostate tumor cell line) xenograft tumors; assay: DU145 xenograft combination therapy; assay type: in vivo, mouse; conditions: Ab #6 300 μg IP every three days; taxol 20 mg/kg IP once per week
Description: In a second experiment, mice bearing DU145 (a prostate tumor cell line) xenograft tumors are prepared by establishing tumors subcutaneously in the flanks of nude mice (Charles River Laboratories). […] Again, tumor size is measured twice a week and measurements are used to calculate tumor volume.

[6] = target: T1, heregulin binding to ErbB3 on MALME-3M cells (Homo sapiens, UniProt P21860); assay: biotinylated heregulin binding to MALME3M cells by FACS; assay type: cell-based; conditions: 5 μM antibody, 20 nM heregulin EGF
T1 construct: ErbB3 expressed on MALME-3M melanoma cells; host or cells: MALME-3M melanoma cells
Description: After 30 minutes, 50 μl of 40 nM biotinylated heregulin EGF is added to the cells and incubated for another 10 minutes on ice. This yields a final concentration of 5 μM antibody and 20 nM heregulin EGF. Cells are then washed twice with 500 μl BD stain buffer and incubated with 100 μl of a 1:200 dilution of streptavidin-PE (PE=phycoerythrin) (Invitrogen) in BD stain buffer for 45 minutes. Finally, cells are washed twice, resuspended in 300 μl of BD stain buffer and analyzed in a FACSCALIBUR flow cytometer. As a positive control, 1×10^5 MALME3M cells are incubated with 20 nM heregulin EGF for 10 minutes on ice, washed twice and incubated with a 1:200 dilution of streptavidin-PE for 45 minutes. In order to assess background staining from the streptavidin-PE conjugate, 1×10^5 MALME3M cells are incubated with 100 μl of a 1:200 dilution of streptavidin-PE only for 45 minutes.

[7] = target: ErbB3 (Homo sapiens, UniProt P21860); assay: paratope mapping: binding of Ab #6 scFv mutants to ErbB3; conditions: scFv format; compared with binding to Protein A
Description: FIG. 36 presents data from paratope mapping experiments.
This format is used to investigate the effect on ErbB3 binding of alanine (and in some cases phenylalanine) substitution mutations in the CDR loops.
All of the mutations are made using standard recombinant DNA techniques and binding of the mutants to ErbB3 is tested using standard screening techniques known in the art.

CS(=O)(=O)CCNCc1ccc(-c2ccc3ncnc(Nc4ccc(OCc5cccc(F)c5)c(Cl)c4)c3c2)o1 [Lapatinib]
IC50 ([1]; 25 nM BTC, read-out: IC50, BTC-induced ErbB3 phosphorylation): 360 nM
IC50 ([1]; 25 nM HRG, read-out: IC50, HRG-induced ErbB3 phosphorylation): 150 nM

N.N.[Cl][Pt][Cl] [cisplatin]
tumor growth inhibition [2]: able to inhibit the growth of the SKOV3 xenografts

C#Cc1cccc(Nc2ncnc3cc(OCCOC)c(OCCOC)cc23)c1 [erlotinib, reference compound]
tumor growth inhibition [3]: insensitive
inhibition of tumor growth (tumor volume) [4]: inhibit tumor growth

CC(=O)O[C@H]1C(=O)[C@@]2(C)[C@H]([C@H](OC(=O)c3ccccc3)[C@]3(O)C[C@H](OC(=O)[C@H](O)[C@@H](NC(=O)c4ccccc4)c4ccccc4)C(C)=C1C3(C)C)[C@]1(OC(C)=O)CO[C@@H]1C[C@@H]2O [taxol, reference compound]
inhibition of tumor growth (tumor volume) [5]: inhibited tumor growth
tumor growth inhibition [3]: insensitive

Pertuzumab
IC50, BTC-induced ErbB3 phosphorylation ([1]; 25 nM BTC, 10 minutes): did not inhibit

B1: Ab/Fab #3: a Fab version of Ab #3 (antibody, V domains shown)
VH: EVQLLESGGGLVQPGGSLRLSCAASGFTFSAYNMRWVRQAPGKGLEWVSVIYPSGGATRYADSVKGRFTISRDNSKNTLYLQMNSLRAEDTAVYYCARGYYYYGMDVWGQGTLVTVSS
VL: QSVLTQPPSASGTPGQRVTISCSGSDSNIGRNYIYWYQQFPGTAPKLLIYRNNQRPSGVPDRISGSKSGTSASLAISGLRSEDEAEYHCGTWDDSLSGPVFGGGTKLTVL
inhibition of heregulin binding to ErbB3 [6]: able to inhibit heregulin binding to ErbB3

B2: M1: Ab #6 scFv mutant, H1 loop, Thr28Ala (antibody, chains of the INN, looked up, variant H:T28A, V domains shown)
VH: EVQLLESGGGLVQPGGSLRLSCAASGFAFSHYVMAWVRQAPGKGLEWVSSISSSGGWTLYADSVKGRFTISRDNSKNTLYLQMNSLRAEDTAVYYCTRGLKMATIFDYWGQGTLVTVSS
VL: QSALTQPASVSGSPGQSITISCTGTSSDVGSYNVVSWYQQHPGKAPKLIIYEVSQRPSGVSNRFSGSKSGNTASLTISGLQTEDEADYYCCSYAGSSIFVIFGGGTKVTVL
modifications: scFv
Effect on ErbB3 Binding of Ab #6 Mutations [7]: no effect on binding

B3: M3: Ab #6 scFv mutant, CDR H1, His31Ala (antibody, chains of the INN, looked up, variant H:H31A, V domains shown)
VH: EVQLLESGGGLVQPGGSLRLSCAASGFTFSAYVMAWVRQAPGKGLEWVSSISSSGGWTLYADSVKGRFTISRDNSKNTLYLQMNSLRAEDTAVYYCTRGLKMATIFDYWGQGTLVTVSS
VL: QSALTQPASVSGSPGQSITISCTGTSSDVGSYNVVSWYQQHPGKAPKLIIYEVSQRPSGVSNRFSGSKSGNTASLTISGLQTEDEADYYCCSYAGSSIFVIFGGGTKVTVL
modifications: scFv
Effect on ErbB3 Binding of Ab #6 Mutations [7]: no effect on binding

B4: M4: Ab #6 scFv mutant, CDR H1, Tyr32Ala (antibody, chains of the INN, looked up, variant H:Y32A, V domains shown)
VH: EVQLLESGGGLVQPGGSLRLSCAASGFTFSHAVMAWVRQAPGKGLEWVSSISSSGGWTLYADSVKGRFTISRDNSKNTLYLQMNSLRAEDTAVYYCTRGLKMATIFDYWGQGTLVTVSS
VL: QSALTQPASVSGSPGQSITISCTGTSSDVGSYNVVSWYQQHPGKAPKLIIYEVSQRPSGVSNRFSGSKSGNTASLTISGLQTEDEADYYCCSYAGSSIFVIFGGGTKVTVL
modifications: scFv
Effect on ErbB3 Binding of Ab #6 Mutations [7]: large decrease in binding (based on the three groupings shown in FIG. 36)

B5: M5: Ab #6 scFv mutant, CDR H1, Tyr32Phe (antibody, chains of the INN, looked up, variant H:Y32F, V domains shown)
VH: EVQLLESGGGLVQPGGSLRLSCAASGFTFSHFVMAWVRQAPGKGLEWVSSISSSGGWTLYADSVKGRFTISRDNSKNTLYLQMNSLRAEDTAVYYCTRGLKMATIFDYWGQGTLVTVSS
VL: QSALTQPASVSGSPGQSITISCTGTSSDVGSYNVVSWYQQHPGKAPKLIIYEVSQRPSGVSNRFSGSKSGNTASLTISGLQTEDEADYYCCSYAGSSIFVIFGGGTKVTVL
modifications: scFv
Effect on ErbB3 Binding of Ab #6 Mutations [7]: no effect on binding
